Reference: publication PMC4405350, “From Broad-Spectrum Biocides to Quorum Sensing Disruptors and Mussel Repellents: Antifouling Profile of Alkyl Triphenylphosphonium Salts” (PLoS ONE, 2015)
Like-named read-outs stand apart in the source and are kept apart here.

Tests used:
Type in all cases: cell-based
[1] = test system: Gayralia oxysperma spores; test: Macroalgal spore germination inhibition; conditions: 6 days, 19±1 °C
Description: (§1) All the biological assays were run by triplicate. […] For the active products, serial dilutions were performed to calculate the half-maximal inhibitory concentrations (IC50) or the minimal inhibitory concentrations (MIC). Unless otherwise stated, the test concentrations were 100, 50, 25, 10, 5, 2.5, 1, 0.5 and 0.1 μM. Dose-response curves were adjusted with GraphPad Prism 5 software using a four-parameter non-linear regression model.
To evaluate the effect of the phosphonium salts on the germination of macroalgal spores, Gayralia oxysperma (Kützing) K.L.Vinogradova was selected as model organism. G. oxysperma (Ulotrichales, Chlorophyta) is a cosmopolitan member of the Ulvophyceae. Unlike Ulva species, which produce biflagellate male and female gametes, as well as quadriflagellate spores, G. oxysperma only produces biflagellate spores. This is an advantage as bioassays can be conducted straightforwardly without the need to distinguish between gamete-producing and zoospore-producing plants. […] Fresh fertile fragments were selected and placed in Petri dishes. Spores were then released in Von Stosch Solution (VSS) by the osmotic method. Bioassays were conducted in flat-bottom 96-well plates as described by Chambers and co-workers, with slight modifications. Each well was filled with 50 μl of the appropriate dilution of the products in VSS to which 50 μl of spore inoculum (ca. 2 x 10^5 spores ml^-1) were added. Plates were incubated at 19±1 °C for 6 days. After the incubation time, the bottom of each well was examined for the presence of germinated spores with an inverted microscope. A spore was considered as germinated when the germ tube was visible. The MIC was recorded as the lowest concentration inhibiting spore germination.

[2] = test system: Alternaria sp.; test: Marine-derived fungi growth inhibition (OD405); conditions: Alternaria, 120 h, read-out: IC50 Alternaria sp.
Description: as §1
(§2) Three strains of marine-derived fungi were kindly provided by Dr. Á. Trigos (University of Veracruz, Mexico). The strains were isolated from reef organisms collected from the Veracruz Reef System and identified as Aspergillus sp., Fusarium sp. and Alternaria sp..
(§3) Fungal strains were cultured in Potato-Dextrose Agar (PDA) supplemented with filtered seawater (FSW) (50% v/v) at 26 °C for 5 days prior to experiments. […] Briefly, fungal inocula were prepared by addition of 5 ml of sterile saline solution to the cultures. Gently swabbing released conidia. […] The plates were incubated for 5 days at 26 °C. The calculation of the half-maximal inhibitory concentrations (IC50) was performed using OD405 as endpoint.

[3] = test system: Aspergillus sp.; test: Marine-derived fungi growth inhibition (OD405); conditions: Aspergillus, 120 h, read-out: IC50 Aspergillus sp.
Description: as §1, §2, §3

[4] = test system: Vibrio alginolyticus CECT 521; test: Marine bacteria growth inhibition (broth microdilution, OD625); conditions: Vibrio alginolyticus, read-out: IC50 V. alginolyticus
Description: as §1
(§4) Growth inhibition was assessed in Marine Broth (Conda) according to CLSI guidelines for broth microdilution susceptibility testing. The incubation time was 24 h and the incubation temperature was 30 °C.

[5] = test system: Cobetia marina CECT 4278; test: as above; conditions: Cobetia marina, read-out: IC50 C. marina
Description: as §1, §4

[6] = test system: Cellulophaga lytica CECT 5014; test: as above; conditions: Cellulophaga lytica, read-out: IC50 C. lytica
Description: as §1, §4

[7] = test system: Vibrio anguillarum CECT 4347; test: as above; conditions: Vibrio anguillarum, read-out: IC50 V. anguillarum
Description: as §1, §4

[8] = test system: Shewanella algae CECT 5021; test: as above; conditions: Shewanella algae, read-out: IC50 S. algae
Description: as §1, §4

[9] = test system: Pseudoalteromonas atlantica CECT 579; test: as above; conditions: Pseudoalteromonas atlantica, read-out: IC50 P. atlantica
Description: as §1, §4

[10] = test system: V. harveyi WT and reporter strains; test: V. harveyi growth inhibition (OD600); conditions: Vibrio harveyi, 18 h, read-out: IC50 Growth
Description: (§5) V. harveyi BB120 (wild type strain), BB170 (luxN::Tn5kan), BB886 (luxPQ::Tn5kan) and BB721 (luxO::Tn5lacZ) were acquired from ATCC. To screen the ability of the compounds to interfere with QS, the test products were serially diluted in 100 μl of Autoinducer Bioassay (AB) medium using white, clear-bottom 96-well microtiter plates (Costar 3610) as assay platform. Aerobic bacterial cultures were incubated overnight (30 °C) and diluted 1:50. One-hundred μl of the diluted cultures were dispensed inside each well in the microtiter plate. That gave a starting cell density of 1–2 x 10^7 cfu ml^-1. The plates were covered with a sterile sealing film. Luminescence and OD600 were monitored every 15 min over 18 h with a multimode plate reader (Perkin-Elmer EnSpire) in order to correlate the effects of the products on both the growth and bioluminescence kinetics.
(§6) Compounds 3–5 and 7 were evaluated in V. harveyi WT and three mutant strains: BB886 (luxPQ::Tn5Kan), unable to detect AI-2; BB170 (luxN::Tn5Kan), unable to detect HAI-1; and BB721 (luxO::Tn5lacZ), a LuxO null mutant that produces maximal luminescence per cell constitutively. In order to take into account the cumulative effects of the compounds, bioluminescence and growth were measured simultaneously every 15 min over 18 h (Fig 7). Accordingly, IC50 values for bacterial luminescence and growth were obtained by integration of the areas under the curves for each tested dose (Table 3). For clarity of the graphs, error bars has been omitted in Fig 7 and only the mean curves are shown.

[11] = test system: V. harveyi BB721 (luxO::Tn5lacZ); test: Quorum sensing bioassay: bioluminescence; conditions: Vibrio harveyi, 18 h, read-out: IC50 Luminescence BB721
Description: as §5, §6

[12] = test system: V. harveyi BB886 (luxPQ::Tn5kan); test: Quorum sensing bioassay: bioluminescence; conditions: Vibrio harveyi, 18 h, read-out: IC50 Luminescence BB886
Description: as §5, §6

[13] = test system: V. harveyi BB170 (luxN::Tn5kan); test: Quorum sensing bioassay: bioluminescence; conditions: Vibrio harveyi, 18 h, read-out: IC50 Luminescence BB170
Description: as §5, §6

[14] = test system: V. harveyi BB120 (wild type strain); test: Quorum sensing bioassay: bioluminescence; conditions: Vibrio harveyi, 18 h, read-out: IC50 Luminescence WT
Description: as §5, §6

[15] = growth inhibition, 5 days, 26 °C
[16] = CECT521, growth inhibition, 24 h, 30 °C, three replicates
[17] = CECT4278, growth inhibition, 24 h, 30 °C, three replicates
[18] = CECT5014, growth inhibition, 24 h, 30 °C, three replicates
[19] = CECT4347, growth inhibition, 24 h, 30 °C, three replicates
[20] = CECT5021, growth inhibition, 24 h, 30 °C, three replicates
[21] = CECT579, growth inhibition, 24 h, 30 °C, three replicates

SMILES	MIC G. oxysperma (lowest concentration inhibiting spore germination) [1]	IC50 [2, 15]	IC50 [3, 15]	IC50 [4, 16]	IC50 [5, 17]	IC50 [6, 18]	IC50 [7, 19]	IC50 [8, 20]	IC50 [9, 21]	further results
BrC(Br)[P+](c1ccccc1)(c1ccccc1)c1ccccc1 [Compound 1]	100 µM	> 100 µM	> 100 µM	> 100 µM	> 100 µM	> 100 µM	> 100 µM	> 100 µM	> 100 µM	
COC(=O)CCC[P+](c1ccccc1)(c1ccccc1)c1ccccc1 [Compound 2]	>100 µM	> 100 µM	> 100 µM	> 100 µM	> 100 µM	> 100 µM	> 100 µM	> 100 µM	> 100 µM	
C/C=C/C[P+](c1ccccc1)(c1ccccc1)c1ccccc1 [Compound 3]	>100 µM	> 100 µM	> 100 µM	> 100 µM	> 100 µM	73.2 µM	> 100 µM	> 100 µM	9.5 µM	IC50 [10]: > 500 µM; IC50 [11]: 348 µM; IC50 [12]: 265 µM; IC50 [13]: 251 µM; IC50 [14]: 297 µM
O=S(=O)([O-])CCCC[P+](c1ccccc1)(c1ccccc1)c1ccccc1 [Compound 6]	>100 µM	> 100 µM	> 100 µM	> 100 µM	> 100 µM	> 100 µM	> 100 µM	> 100 µM	> 100 µM	
CCCCCCC[P+](c1ccccc1)(c1ccccc1)c1ccccc1 [Compound 8, heptyl triphenylphosphonium bromide]	100 µM	12 µM	12.4 µM	> 100 µM	> 100 µM	20 µM	> 100 µM	> 100 µM	28.6 µM	
CCCCCCCCC[P+](c1ccccc1)(c1ccccc1)c1ccccc1 [Compound 9]	50 µM	7.4 µM	10 µM	69.7 µM	21 µM	2.6 µM	87 µM	8.6 µM	6.6 µM	
CCCCCCCCCC[P+](c1ccccc1)(c1ccccc1)c1ccccc1 [Compound 10]	50 µM	5.2 µM	11.7 µM	35.5 µM	8 µM	2.6 µM	18.3 µM	10.4 µM	5.2 µM	
CCCCCCCCCCC[P+](c1ccccc1)(c1ccccc1)c1ccccc1 [Compound 11]	50 µM	3.5 µM	5.1 µM	32.9 µM	6.1 µM	1.1 µM	17 µM	5.4 µM	3 µM	
CCCCCCCCCCCC[P+](c1ccccc1)(c1ccccc1)c1ccccc1 [Compound 12]	50 µM									IC50 [2]: 1.2 µM; IC50 [3]: 7.5 µM; IC50 ([4]; CECT521, 24 h): 26.3 µM; IC50 ([5]; CECT4278, 24 h): 5.1 µM; IC50 ([6]; CECT5014, 24 h): 1.7 µM; IC50 ([7]; CECT4347, 24 h): 27.5 µM; IC50 ([8]; CECT5021, 24 h): 3 µM; IC50 ([9]; CECT579, 24 h): 1.1 µM
CCCCCCCCCCCCC[P+](c1ccccc1)(c1ccccc1)c1ccccc1 [Compound 13]	50 µM	1.6 µM	4.8 µM	11.3 µM	5 µM	1.7 µM	5.7 µM	3.6 µM	1.2 µM	
CCCCCCCCCCCCCC[P+](c1ccccc1)(c1ccccc1)c1ccccc1 [Compound 14]	50 µM	0.7 µM	5.3 µM	12.7 µM	5.3 µM	2 µM	1.6 µM	1.2 µM	2.3 µM	
CCCCCCCCCCCCCCC[P+](c1ccccc1)(c1ccccc1)c1ccccc1 [Compound 15]	50 µM	2.9 µM	5.2 µM	5.6 µM	5.5 µM	1.9 µM	2.7 µM	3.8 µM	2.9 µM	
CCCCCCCCCCCCCCCC[P+](c1ccccc1)(c1ccccc1)c1ccccc1 [Compound 16]	50 µM	1.4 µM	5.2 µM	16.9 µM	9.9 µM	1.5 µM	5.3 µM	5.4 µM	6.8 µM	
O=C(O)CCCCCCCCCC[P+](c1ccccc1)(c1ccccc1)c1ccccc1 [Compound 19]	>100 µM	> 100 µM	> 100 µM	> 100 µM	> 100 µM	> 100 µM	> 100 µM	> 100 µM	> 100 µM	
c1ccc([P+](CCCCCCCCCCCC[P+](c2ccccc2)(c2ccccc2)c2ccccc2)(c2ccccc2)c2ccccc2)cc1 [Compound 20]	5 µM	0.3 µM	0.6 µM	93.5 µM	7.3 µM	1.1 µM	8 µM	2.2 µM	0.8 µM	
